# According to patent publication US20230167073A1 (Teijin Pharma Limited, priority 2020, published 2023):
# Target: T1, Human TRPC6 (Homo sapiens, UniProt Q9Y210)
# T1 construct: expressed in transfected cells
# T1 sequence (Q9Y210 1-931): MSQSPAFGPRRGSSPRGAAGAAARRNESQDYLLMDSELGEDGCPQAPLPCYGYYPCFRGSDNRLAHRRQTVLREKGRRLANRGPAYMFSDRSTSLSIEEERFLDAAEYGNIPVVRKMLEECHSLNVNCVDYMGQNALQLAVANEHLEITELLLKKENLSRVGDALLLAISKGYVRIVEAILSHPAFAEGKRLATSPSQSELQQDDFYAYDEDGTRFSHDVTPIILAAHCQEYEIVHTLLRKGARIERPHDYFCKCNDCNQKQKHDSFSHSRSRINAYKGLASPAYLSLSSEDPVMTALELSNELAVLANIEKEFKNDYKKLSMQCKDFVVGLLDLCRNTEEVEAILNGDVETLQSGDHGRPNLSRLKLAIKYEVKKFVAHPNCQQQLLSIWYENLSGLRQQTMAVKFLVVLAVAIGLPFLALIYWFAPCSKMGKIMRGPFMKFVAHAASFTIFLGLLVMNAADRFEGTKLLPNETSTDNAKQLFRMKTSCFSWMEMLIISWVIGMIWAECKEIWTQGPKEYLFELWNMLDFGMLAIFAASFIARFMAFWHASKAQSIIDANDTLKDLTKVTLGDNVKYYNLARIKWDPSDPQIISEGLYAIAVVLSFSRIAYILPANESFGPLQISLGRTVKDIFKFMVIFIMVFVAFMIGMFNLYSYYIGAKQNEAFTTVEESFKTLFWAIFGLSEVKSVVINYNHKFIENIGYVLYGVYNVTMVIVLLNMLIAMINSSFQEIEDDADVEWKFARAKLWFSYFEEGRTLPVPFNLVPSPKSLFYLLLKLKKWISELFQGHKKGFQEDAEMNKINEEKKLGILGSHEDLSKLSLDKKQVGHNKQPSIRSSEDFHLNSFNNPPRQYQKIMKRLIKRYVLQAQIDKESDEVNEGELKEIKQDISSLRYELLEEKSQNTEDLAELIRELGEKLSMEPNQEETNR
# Assay: Evaluation of TRPC6 channel inhibitory activity (1), FLIPR Calcium 5 Assay Kit, OAG stimulation (Compound Nos. 1-1293)
# Assay type: cell-based
# Settings: Human TRPC6 stably-expressing cells, OAG 30 μM, FLIPR Calcium 5 Assay Kit; read-out: Inhibitory activity (pIC50 class) (converted)
# In short: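 TRPC6 (human) stable cells, 24 h culture; Ca5 no-wash dye + probenecid 30 min; cpd 20 min; OAG 30 μM final; ΔF (pre-cpd min to post-OAG max); 0%/100% = no cpd / no cpd + no OAG; 4PL → pIC50, binned +/++/+++.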
row,IC50 [µM],SMILES
1,> 1,"Cn1nc(-c2ccccc2)cc1Oc1cc(C#N)ccc1-c1ccc(C(N)C(N)=O)cn1 (stereo not drawn) [compound 516, 2-amino-2-[6-[4-cyano-2-(2-methyl-5-phenylpyrazol-3-yl)oxyphenyl]pyridin-3-yl]acetamide]"
2,< 0.01,"Cc1cc(Oc2cc(C#N)ccc2-c2ccc([C@@H](O)CN)cn2)cc(N2CCOCC2)n1 [compound 517, 4-[5-[(1R)-2-amino-1-hydroxyethyl]pyridin-2-yl]-3-(2-methyl-6-morpholin-4-ylpyridin-4-yl)oxybenzonitrile]"
3,0.01 to 1,"Cn1nc(C2CC2)cc1Oc1cc(C#N)ccc1-c1cc(C(O)CN)c(Cl)cn1 (stereo not drawn) [compound 518, 4-[4-(2-amino-1-hydroxyethyl)-5-chloropyridin-2-yl]-3-(5-cyclopropyl-2-methylpyrazol-3-yl)oxybenzonitrile]"
4,0.01 to 1,"Cn1nc(C2CC2)cc1Oc1cc(C#N)ccc1-c1cc(C(O)CN)ccn1 (stereo not drawn) [compound 519, 4-[4-(2-amino-1-hydroxyethyl)pyridin-2-yl]-3-(5-cyclopropyl-2-methylpyrazol-3-yl)oxybenzonitrile]"
5,0.01 to 1,"Cn1nc(C2CC2)cc1Oc1cc(C#N)ccc1-c1ncc(CN)s1 [compound 520, 4-[5-(aminomethyl)-1,3-thiazol-2-yl]-3-(5-cyclopropyl-2-methylpyrazol-3-yl)oxybenzonitrile]"
6,< 0.01,"Cn1nc(-c2ccccn2)cc1Oc1cc(C#N)ccc1-c1ncc(CN)s1 [compound 521, 4-[5-(aminomethyl)-1,3-thiazol-2-yl]-3-(2-methyl-5-pyridin-2-ylpyrazol-3-yl)oxybenzonitrile]"
7,< 0.01,"Cn1nc(-c2ccccn2)cc1Oc1cc(C#N)ccc1-c1ccc(CN)n2ccnc12 [compound 522, 4-[5-(aminomethyl)imidazo[1,2-a]pyridin-8-yl]-3-(2-methyl-5-pyridin-2-ylpyrazol-3-yl)oxybenzonitrile]"
8,0.01 to 1,"Cc1nc(Oc2cc(C#N)ccc2-c2ccc([C@H](O)CN)cn2)cc(N2C[C@@H](C)O[C@@H](C)C2)n1 [compound 523, 4-[5-[(1S)-2-amino-1-hydroxyethyl]pyridin-2-yl]-3-[6-[(2S,6R)-2,6-dimethylmorpholin-4-yl]-2-methylpyrimidin-4-yl]oxybenzonitrile]"
9,0.01 to 1,"Cc1nc(Oc2cc(C#N)ccc2-c2ncc([C@H](O)CN)cn2)cc(N2C[C@@H](C)O[C@@H](C)C2)n1 [compound 524, 4-[5-[(1S)-2-amino-1-hydroxyethyl]pyrimidin-2-yl]-3-[6-[(2S,6R)-2,6-dimethylmorpholin-4-yl]-2-methylpyrimidin-4-yl]oxybenzonitrile]"
10,< 0.01,"Cc1nc(Oc2cc(C#N)ccc2-c2ccc([C@H](O)CN)cn2)cc(-c2ccccc2)n1 [compound 525, 4-[5-[(1S)-2-amino-1-hydroxyethyl]pyridin-2-yl]-3-(2-methyl-6-phenylpyrimidin-4-yl)oxybenzonitrile]"
11,< 0.01,"Cc1nc(Oc2cc(C#N)ccc2-c2ncc([C@H](O)CN)cn2)cc(-c2ccccc2)n1 [compound 526, 4-[5-[(1S)-2-amino-1-hydroxyethyl]pyrimidin-2-yl]-3-(2-methyl-6-phenylpyrimidin-4-yl)oxybenzonitrile]"
12,< 0.01,"Cc1cc(Oc2cc(C#N)ccc2-c2ccc([C@H](O)CN)cn2)cc(N2C[C@@H]3C[C@H]2CO3)n1 [compound 527, 4-[5-[(1S)-2-amino-1-hydroxyethyl]pyridin-2-yl]-3-[2-methyl-6-[(1S,4S)-2-oxa-5-azabicyclo[2.2.1]heptan-5-yl]pyridin-4-yl]oxybenzonitrile]"
13,0.01 to 1,"Cc1cc(Oc2cc(C#N)ccc2-c2ncc([C@H](O)CN)cn2)cc(N2C[C@@H]3C[C@H]2CO3)n1 [compound 528, 4-[5-[(1S)-2-amino-1-hydroxyethyl]pyrimidin-2-yl]-3-[2-methyl-6-[(1S,4S)-2-oxa-5-azabicyclo[2.2.1]heptan-5-yl]pyridin-4-yl]oxybenzonitrile]"
14,< 0.01,"Cc1cc(Oc2cc(C#N)ccc2-c2ccc([C@H](O)CN)cn2)cc(N2CCO[C@@H](C)C2)n1 [compound 529, 4-[5-[(1S)-2-amino-1-hydroxyethyl]pyridin-2-yl]-3-[2-methyl-6-[(2S)-2-methylmorpholin-4-yl]pyridin-4-yl]oxybenzonitrile]"
15,< 0.01,"Cc1cc(Oc2cc(C#N)ccc2-c2ncc([C@H](O)CN)cn2)cc(N2CCO[C@@H](C)C2)n1 [compound 530, 4-[5-[(1S)-2-amino-1-hydroxyethyl]pyrimidin-2-yl]-3-[2-methyl-6-[(2S)-2-methylmorpholin-4-yl]pyridin-4-yl]oxybenzonitrile]"
16,< 0.01,"Cc1cc(Oc2cc(C#N)ccc2-c2ccc([C@H](O)CN)cn2)cc(N2CCOC(C)(C)C2)n1 [compound 531, 4-[5-[(1S)-2-amino-1-hydroxyethyl]pyridin-2-yl]-3-[2-(2,2-dimethylmorpholin-4-yl)-6-methylpyridin-4-yl]oxybenzonitrile]"
17,< 0.01,"Cc1cc(Oc2cc(C#N)ccc2-c2ncc([C@H](O)CN)cn2)cc(N2CCOC(C)(C)C2)n1 [compound 532, 4-[5-[(1S)-2-amino-1-hydroxyethyl]pyrimidin-2-yl]-3-[2-(2,2-dimethylmorpholin-4-yl)-6-methylpyridin-4-yl]oxybenzonitrile]"
18,0.01 to 1,"N#Cc1ccc(-c2ncc(CN)cn2)c(Oc2cnnc(N3CCOCC3)c2)c1 [compound 534, 4-[5-(aminomethyl)pyrimidin-2-yl]-3-(6-morpholin-4-ylpyridazin-4-yl)oxybenzonitrile]"
19,> 1,"N#Cc1ccc(-c2ncc(CN)cn2)c(Oc2cc(N3CCOCC3)cnn2)c1 [compound 535, 4-[5-(aminomethyl)pyrimidin-2-yl]-3-(5-morpholin-4-ylpyridazin-3-yl)oxybenzonitrile]"
20,< 0.01,"Cn1nc(-c2nccs2)cc1Oc1cc(C#N)ccc1-c1ccc([C@H](O)CN)cn1 [compound 536, 4-[5-[(1S)-2-amino-1-hydroxyethyl]pyridin-2-yl]-3-[2-methyl-5-(1,3-thiazol-2-yl)pyrazol-3-yl]oxybenzonitrile]"
21,> 1,"Cc1cc(Oc2cc(C#N)ccc2-c2ccc(C3(O)CNC3)cn2)cc(N2CCOCC2)n1 [compound 537, 4-[5-(3-hydroxyazetidin-3-yl)pyridin-2-yl]-3-(2-methyl-6-morpholin-4-ylpyridin-4-yl)oxybenzonitrile]"
22,0.01 to 1,"Cc1cc(Oc2cc(C#N)ccc2-c2ccc(C3(F)CNC3)cn2)cc(N2CCOCC2)n1 [compound 538, 4-[5-(3-fluoroazetidin-3-yl)pyridin-2-yl]-3-(2-methyl-6-morpholin-4-ylpyridin-4-yl)oxybenzonitrile]"
23,0.01 to 1,"Cc1cc(Oc2cc(C#N)ccc2-c2ccc(C3OCCCC3N)cn2)cc(N2CCOCC2)n1 (stereo not drawn) [compound 539, 4-[5-(3-aminooxan-2-yl)pyridin-2-yl]-3-(2-methyl-6-morpholin-4-ylpyridin-4-yl)oxybenzonitrile]"
24,> 1,"Cn1nc(-c2ncccn2)cc1Oc1cc(C#N)ccc1-c1ccc([C@H](O)CN)cn1 [compound 540, 4-[5-[(1S)-2-amino-1-hydroxyethyl]pyridin-2-yl]-3-(2-methyl-5-pyrimidin-2-ylpyrazol-3-yl)oxybenzonitrile]"
